Data on one compound can be found in US11337990B2, “Human milk oligosaccharides to promote growth of beneficial bacteria” (ABBOTT LABORATORIES, priority 2010, dated 2022).

The subject of test [1] is Caco-2 cells. The test can be described thus: Alkaline phosphatase activity per milligram of protein (cell differentiation), Caco-2. The class given is cell-based, human. To be noted: Example 48: LNnT or 2′FL 20, 200, 2000 mg/L; 6′SL 40, 400, 4000 mg/mL; 72 hours. The method, then:
In a second experiment, Caco-2 cells, which model more mature epithelial cells of the small intestine, are incubated in a humidified atmosphere of 5% carbon dioxide at 37° C. in the presence of LNnT or 2′FL at concentrations of 0 mg/L (“0”), 20 mg/L (“20”), 200 mg/L (“200”), and 2000 mg/L (“2000”) or in the presence of 6′SL at concentrations of 0 mg/mL (“0”), 40 mg/mL (“40”), 400 mg/mL (“400”), and 4000 mg/mL (“4000”) for 72 hours. The culture medium utilized is Dulbecco's Modified Eagle Medium (Life Technologies, Foster City Calif.) supplemented with 10% fetal calf serum and 2 mM glutamine. The controls (“energy”) consist of 91.5 mg lactose and 64.2 mg N-acetyllactosamine/L for LNnT; 133 mg lactose and 67 mg fucose/L for 2′FL; and 195 mg lactose and 205 mg sialic acid/L for 6′SL. The impact of the LNnT, 2′FL, and 6′SL at various levels and the control on Caco-2 cell proliferation is measured using a conventional BrdU assay, which measures the number of cells that have recently synthesized DNA. […] Additionally, the impact of LNnT, 2′FL, and 6′SL at various levels and the controls on the alkaline phosphatase activity per milligram of protein for Caco-2 cells, which is an indication of cell differentiation, is measured.

The test system of test [2] is Caco-2 cells. The test can be described thus: Transepithelial resistance (barrier function), Caco-2, Ussing chambers. The class given is cell-based, human. To be noted: Example 48, more mature Caco-2 cells. The text has this: FIGS. 46-48 illustrate the effect of LNnT, 2′FL, and 6′SL on cell resistance (transepithelial resistance), which is a marker for epithelial barrier function, wherein a higher resistance is associated with a higher barrier function. Epithelial cell resistance or barrier function is a measure of differentiated epithelial cell function. Specifically, as the cells mature, tighter junctions between the cells are formed resulting in a stronger epithelial cell barrier. This barrier prevents the movement of large molecules, bacteria, or viruses from one side of the barrier to the other. […] Transepithelial resistance is measured using Transwell Snapwell inserts containing the desired cell culture were transferred to modified Ussing chambers and bathed in modified Kreb's solution at 37 C with 95% oxygen and 5% carbon dioxide. Transepithelial resistance was measured as the passive transport of ions across the monolayers.

A further test has as its system bifidobacteria strains. In words: Bacterial growth assay (OD600), panel of 12 strains. The class given is cell-based, Bifidobacterium. The settings on record: 1% carbohydrate in sMRS+cysteine. The method, then:
(§1) Coy Laboratory Products, Grass Lake, Mich.). Subsequently, the cultures are passed twice on a semi-synthetic MRS medium ([…] which is supplemented with 1% (w/v) filter-sterilized glucose as the sole carbohydrate source. […] For bifidobacteria strains, the same procedure is followed except all media are supplemented with 0.5 g/l L-cysteine/HCl. [table] After the 2nd pass in sMRS+glucose+cysteine, the cultures are washed once with 10 mL of sterile sMRS+cysteine (no carbohydrate), resuspended in 10 ml of sterile sMRS+cysteine (no carbohydrate) and then used as a 1% inoculum. The carbohydrates are sterilized with a 0.22 micron filter and used at a 1% final concentration. Cell growth is performed in 250 μL of sMRS+cysteine covered with 50 μL of mineral oil in a Bioscreen 100-well Honeycomb plate. […] The plate reader is operated in discontinuous mode, with absorbance readings performed in 30-minute intervals, and preceded by 30-second shaking intervals at maximum speed. Controls consist of inoculated medium lacking carbohydrate. […] All three plates include a positive control (glucose) and negative control (no carbohydrate). The OD600 data for each carbohydrate is corrected by subtracting the OD600 of the basal media (sMRS)+cysteine from the sample plate for each probiotic. Maximum OD is determined by inspection of the corrected growth data. OD is determined by subtracting the initial corrected OD (time point 0) from the maximum corrected OD. Samples are grown in biologically independent triplicates and the resulting growth kinetic data are expressed as the mean of these replicates. For the growth curve plots, OD600 vs. time is first plotted for the bacteria grown on medium lacking carbohydrate (sMRS). For all other carbohydrates, the OD600 data is corrected by subtracting the OD600 of sMRS.

For another test, the system named is B. infantis M-63. In words: Bacterial growth assay (OD600). The class given is cell-based, Bifidobacterium infantis. To be noted: 1% carbohydrate in sMRS+cysteine. The method, then: as §1
The subject of the next test is B. infantis ATCC 15697. In words: Bacterial growth assay (OD600). The class given is cell-based, Bifidobacterium infantis. The settings on record: 1% carbohydrate in sMRS+cysteine. The method, then: as §1
The next test deals with HT-29 cells. In words: HT-29 cell proliferation, BrdU assay. The class given is cell-based, human. As to the method: In a first experiment, HT-29 cells, which model the immature epithelial cells of the small intestine, are incubated in a humidified atmosphere of 5% carbon dioxide at 37 C in the presence of LNnT at concentrations of 0 mg/L (“0”), 100 mg/L (“100”), 200 mg/L (“200”), and 400 mg/L (“400”) for either 48 hours or 72 hours. The culture medium utilized is Dulbecco's Modified Eagle Medium (Life Technologies, Foster City Calif.) supplemented with 10% fetal calf serum and 2 mM glutamine. The control consists of a combination of 91.5 mg lactose and 62.4 mg galactosamine (“LG”) per Liter of the Dulbecco's Modified Eagle Medium set forth above. The impact of the LNnT at various levels and the control on HT-29 cell proliferation is measured using a conventional BrdU assay, which measures the number of cells that have recently synthesized DNA.
In a first experiment, HT-29 cells, which model the immature epithelial cells of the small intestine, are incubated in a humidified atmosphere of 5% carbon dioxide at 37° C. in the presence of LNnT or 2′FL at concentrations of 0 mg/L (“0”), 20 mg/L (“20”), 200 mg/L (“200”), and 2000 mg/L (“2000”) or in the presence of 6′SL at concentrations of 0 mg/mL (“0”), 40 mg/mL (“40”), 400 mg/mL (“400”), and 4000 mg/mL (“4000”) for 72 hours. The culture medium utilized is Dulbecco's Modified Eagle Medium (Life Technologies, Foster City Calif.) supplemented with 10% fetal calf serum and 2 mM glutamine. The controls (“energy”) consist of 91.5 mg lactose and 64.2 mg N-acetyllactosamine/L for LNnT; 133 mg lactose and 67 mg fucose/L for 2′FL; and 195 mg lactose and 205 mg/L sialic acid for 6′SL. The impact of the LNnT, 2′FL, and 6′SL at various levels and the controls on HT-29 cell proliferation is measured using a conventional BrdU assay, which measures the number of cells that have recently synthesized DNA. […] Additionally, the impact of LNnT, 2′FL, and 6′SL at various levels and the controls on the alkaline phosphatase activity per milligram of protein for HT-29 cells, which is an indicator of cell differentiation, is measured.

Entries after “also recorded” stand apart in the source; their conditions may differ.

On to `CC(=O)N[C@H]1[C@H](O[C@H]2[C@@H](O)[C@@H](CO)O[C@@H](O[C@H]3[C@H](O)[C@@H](O)C(O)O[C@@H]3CO)[C@@H]2O)O[C@H](CO)[C@@H](O[C@@H]2O[C@H](CO)[C@H](O)[C@H](O)[C@H]2O)[C@@H]1O` (mixture of isomers) [LNnT, Lacto-N-neotetraose], for which, in the test on Caco-2 cells [1], the “alkaline phosphatase activity per milligram of protein (cell differentiation)” value is on record as “trend toward an increase”. Besides, the “cell resistance (transepithelial resistance), barrier function” value with Caco-2 cells [2] is given as “can have a positive effect on cell resistance; also recorded: can positively affect barrier function of more mature cells”. Moreover, the “growth / ability to ferment (OD600)” value was “B. breve ATCC 15700, B. infantis ATCC 15697 and B. infantis M-63 are able to ferment” with bifidobacteria strains; “grow well” in the test on B. infantis M-63; “grow well” in the test with B. infantis ATCC 15697. The HT-29 cell proliferation result is “reduced HT-29 cell proliferation; also recorded: inhibits intestinal cell proliferation” in the test with HT-29 cells (Example 47: 100, 200, 400 mg/L, 48 or 72 hours) and “capable of reducing cell proliferation at higher doses; also recorded: inhibits intestinal cell proliferation in immature epithelial cells” in the test on HT-29 cells (Example 48: LNnT or 2′FL 20, 200, 2000 mg/L, 6′SL 40, 400, 72 hours).
